Laboratory results: patent US20240239790A1, “7-Morpholino-1,6-Naphthyridin-5-yl Derivatives and Pharmaceutical Compositions Thereof Useful as DNA-PK Inhibitor” (adMare Therapeutics Society, priority 2021, published 2024)

Columns and labels:
[1] = Hepatocyte Stability Assay, mouse hepatocytes; format: in vitro ADME; conditions: for hepatocyte CLint at 1 uM: male, CD-1, cryopreserved hepatocytes, pH 7.3, mouse hepatocytes 0.7 million cells per mL, 1 uM compound; for Hepatocyte Stability Mouse % rem. 120 min: mouse hepatocytes
Method: Cryopreserved mouse hepatocytes were obtained from a pool of 10 or more male CD-1 mice. Cryopreserved human hepatocytes were obtained from a pool of 10 or more donors of mixed gender. Final hepatocyte density was 0.7 million viable cells per mL and test compound concentration was 1 uM with a maximum of 0.01% DMSO. Cryopreserved hepatocytes were thawed, washed, and resuspended in Krebs-Heinslet buffer (pH 7.3). The reaction was initiated by adding the test compound into cell suspension and incubated for 0, […], 1, 1.5, and 2 h, respectively, at 37° C./5% C02. The reaction was stopped by adding acetonitrile into the incubation mixture. Samples were then mixed, transferred completely to another 96-well plate, and centrifuged. Supernatants were used for HPLC-MS/MS analysis. […] Peak areas corresponding to the test compound were recorded.

[2] = Microsomal Stability Assay, mouse liver microsomes; format: in vitro ADME; conditions: for microsomal CLint at 0.1 uM: male, CD-1, pH 7.4, mouse liver microsomes 0.1 mg/mL, 0.1 uM compound; for Microsomal Stability Mouse % rem. 60 min: mouse liver microsomes
Method: (§1) Samples were then mixed and centrifuged. Supernatants were used for HPLC-MS/MS analysis. […] Peak areas corresponding to the test compound were recorded.

[3] = Microsomal Stability Assay, human liver microsomes; format: in vitro ADME; conditions: for microsomal CLint at 0.1 uM: both sexes, pH 7.4, human liver microsomes 0.1 mg/mL, 0.1 uM compound; for Microsomal Stability Human % rem. 60 min: human liver microsomes
Method: as §1

[4] = target: T1, DNA-PK phosphorylation at Serine 2056 (Homo sapiens, UniProt P78527); test: Cellular Assay for Inhibition of DNA-PK Phosphorylation at Serine 2056 in FaDu cells (sandwich ELISA, neocarzinostatin); format: cell-based; conditions: pSer2056 DNA-PK, neocarzinostatin 1 μg/mL, Table 1
T1 construct: FaDu cells were purchased from ATCC; host or cells: FaDu
Procedure, shortened: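 FaDu cells pre-treated with compound (0.3% DMSO) for 1 h, then neocarzinostatin 1 μg/mL final added for 2 h to induce DSBs. Protein-normalised lysates read by sandwich ELISA for total and pSer2056 DNA-PK; % inhibition normalised between DMSO and NCS controls, IC50 from variable-slope log(inhibitor) fit.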

| hepatocyte CLint at 1 uM [1] [µL/min/1e6 cells] | Hepatocyte Stability Mouse % rem. 120 min [1] | microsomal CLint at 0.1 uM [2] [µL/min/mg] | Microsomal Stability Mouse % rem. 60 min [2] | microsomal CLint at 0.1 uM [3] [µL/min/mg] | Microsomal Stability Human % rem. 60 min [3] | IC50 [4] [nM] | SMILES |
| --- | --- | --- | --- | --- | --- | --- | --- |
| < 8.2 | G (% remaining = 50-75%) | < 116 | G (% remaining = 50-75%) | > 116 | E (% remaining = 0-25%) | < 100 | CN(C)C(=O)COc1cnc(N[C@H]2CC[C@@H](Oc3nc(N4CCOCC4)cc4ncccc34)CC2)nc1 [Compound 54, N,N-Dimethyl-2-((2-(((1s,4s)-4-((7-morpholino-1,6-naphthyridin-5-yl)oxy)cyclohexyl)amino)pyrimidin-5-yl)oxy)acetamide] |
| < 8.2 | G (% remaining = 50-75%) | < 116 | H (% remaining = 75-100%) | > 116 | F (% remaining = 25-50%) | < 100 | O=C(COc1cnc(N[C@H]2CC[C@@H](Oc3nc(N4CCOCC4)cc4ncccc34)CC2)nc1)N1CCOCC1 [Compound 61, 1-Morpholino-2-((2-(((1s,4s)-4-((7-morpholino-1,6-naphthyridin-5-yl)oxy)cyclohexyl)amino)pyrimidin-5-yl)oxy)ethan-1-one] |
| < 8.2 | H (% remaining = 75-100%) | > 116 | F (% remaining = 25-50%) | < 116 | H (% remaining = 75-100%) | < 100 | O=C(COc1cnc(N[C@H]2CC[C@@H](Oc3nc(N4CCOCC4)cc4ncccc34)CC2)nc1)N1CCNCC1 [Compound 63, 2-((2-(((1s,4s)-4-((7-Morpholino-1,6-naphthyridin-5-yl)oxy)cyclohexyl)amino)pyrimidin-5-yl)oxy)-1-(piperazin-1-yl)ethan-1-one] |
| < 8.2 | G (% remaining = 50-75%) | < 116 | G (% remaining = 50-75%) | < 116 | H (% remaining = 75-100%) | 100 to 1000 | CN(C)CCOc1cnc(N[C@H]2CC[C@@H](Oc3nc(N4CCOCC4)cc4ncccc34)CC2)nc1 [Compound 64, 5-(2-(Dimethylamino)ethoxy)-N-((1s,4s)-4-((7-morpholino-1,6-naphthyridin-5-yl)oxy)cyclohexyl)pyrimidin-2-amine] |
| < 8.2 | G (% remaining = 50-75%) | < 116 | G (% remaining = 50-75%) | > 116 | G (% remaining = 50-75%) | < 100 | NCCOc1cnc(N[C@H]2CC[C@@H](Oc3nc(N4CCOCC4)cc4ncccc34)CC2)nc1 [Compound 65, 5-(2-Aminoethoxy)-N-((1s,4s)-4-((7-morpholino-1,6-naphthyridin-5-yl)oxy)cyclohexyl)pyrimidin-2-amine] |
| < 8.2 | F (% remaining = 25-50%) | < 116 | G (% remaining = 50-75%) | > 116 | F (% remaining = 25-50%) | < 100 | CC(=O)NCCOc1cnc(N[C@H]2CC[C@@H](Oc3nc(N4CCOCC4)cc4ncccc34)CC2)nc1 [Compound 66] |
| < 8.2 | H (% remaining = 75-100%) | > 116 | F (% remaining = 25-50%) | < 116 | G (% remaining = 50-75%) | < 100 | CN1CCN(CCOc2cnc(N[C@H]3CC[C@@H](Oc4nc(N5CCOCC5)cc5ncccc45)CC3)nc2)CC1 [Compound 69, 5-(2-(4-Methylpiperazin-1-yl)ethoxy)-N-((1s,4s)-4-((7-morpholino-1,6-naphthyridin-5-yl)oxy)cyclohexyl)pyrimidin-2-amine] |
| < 8.2 | G (% remaining = 50-75%) | < 116 | G (% remaining = 50-75%) | < 116 | F (% remaining = 25-50%) | < 100 | CNC(=O)COc1cnc(N[C@H]2CC[C@@H](Oc3nc(N4CCOCC4)cc4ncccc34)CC2)nc1 [Compound 71, N-Methyl-2-((2-(((1s,4s)-4-((7-morpholino-1,6-naphthyridin-5-yl)oxy)cyclohexyl)amino)pyrimidin-5-yl)oxy)acetamide] |
| < 8.2 | G (% remaining = 50-75%) | < 116 | G (% remaining = 50-75%) | > 116 | F (% remaining = 25-50%) | < 100 | O=C(COc1cnc(N[C@H]2CC[C@@H](Oc3nc(N4CCOCC4)cc4ncccc34)CC2)nc1)N1CCC1 [Compound 75, 1-(Azetidin-1-yl)-2-((2-(((1s,4s)-4-((7-morpholino-1,6-naphthyridin-5-yl)oxy)cyclohexyl)amino)pyrimidin-5-yl)oxy)ethan-1-one] |
| < 8.2 | H (% remaining = 75-100%) | < 116 | G (% remaining = 50-75%) | < 116 | G (% remaining = 50-75%) | < 100 | CN(C)C(=O)Cn1ccc2nc(N[C@H]3CC[C@@H](Oc4nc(N5CCOCC5)cc5ncccc45)CC3)ncc21 [Compound 86, N,N-Dimethyl-2-(2-(((1s,4s)-4-((7-morpholino-1,6-naphthyridin-5-yl)oxy)cyclohexyl)amino)-5H-pyrrolo[3,2-d]pyrimidin-5-yl)acetamide] |
| < 8.2 | H (% remaining = 75-100%) | < 116 | F (% remaining = 25-50%) | > 116 | E (% remaining = 0-25%) | < 100 | CN(C)C(=O)Cn1c(=O)n(C2CCOCC2)c2nc(N[C@H]3CC[C@@H](Oc4nc(N5CCOCC5)cc5ncccc45)CC3)ncc21 [Compound 97, N,N-Dimethyl-2-(2-(((1s,4s)-4-((7-morpholino-1,6-naphthyridin-5-yl)oxy)cyclohexyl)amino)-8-oxo-9-(tetrahydro-2H-pyran-4-yl)-8,9-dihydro-7H-purin-7-yl)acetamide] |
| < 8.2 | G (% remaining = 50-75%) | < 116 | F (% remaining = 25-50%) | > 116 | E (% remaining = 0-25%) | < 100 | CN(C)C(=O)COc1ccc(C(=O)N[C@H]2CC[C@@H](Oc3nc(N4CCOCC4)cc4ncccc34)CC2)cn1 [Compound 117, 6-(2-(dimethylamino)-2-oxoethoxy)-N-((1s,4s)-4-((7-morpholino-1,6-naphthyridin-5-yl)oxy)cyclohexyl)nicotinamide] |
| < 8.2 | G (% remaining = 50-75%) | < 116 | G (% remaining = 50-75%) | < 116 | G (% remaining = 50-75%) | < 100 | CN(C)C(=O)Cn1ccc(C(=O)N[C@H]2CC[C@@H](Oc3nc(N4CCOCC4)cc4ncccc34)CC2)c1 [Compound 141, 1-(2-(dimethylamino)-2-oxoethyl)-N-((1s,4s)-4-((7-morpholino-1,6-naphthyridin-5-yl)oxy)cyclohexyl)-1H-pyrrole-3-carboxamide] |
| > 8.2 | F (% remaining = 25-50%) | < 116 | G (% remaining = 50-75%) |  |  | 1000 to 10000 | O=C(NO)c1cnc2cc(N3CCOCC3)nc(O[C@H]3CC[C@@H](n4ccnc4)CC3)c2c1 [Compound 172, 5-(((1s,4s)-4-(1H-imidazol-1-yl)cyclohexyl)oxy)-N-hydroxy-7-morpholino-1,6-naphthyridine-3-carboxamide] |

| SMILES | hepatocyte CLint at 1 uM [1] [µL/min/1e6 cells] | Hepatocyte Stability Mouse % rem. 120 min [1] | microsomal CLint at 0.1 uM [2] [µL/min/mg] | Microsomal Stability Mouse % rem. 60 min [2] | microsomal CLint at 0.1 uM [3] [µL/min/mg] | Microsomal Stability Human % rem. 60 min [3] | IC50 [4] [nM] |
| --- | --- | --- | --- | --- | --- | --- | --- |
| CN1CCN(C(=O)COc2cnc(N[C@H]3CC[C@@H](Oc4nc(N5CCOCC5)cc5ncccc45)CC3)nc2)CC1 [Compound 62, 1-(4-Methylpiperazin-1-yl)-2-((2-(((1s,4s)-4-((7-morpholino-1,6-naphthyridin-5-yl)oxy)cyclohexyl)amino)pyrimidin-5-yl)oxy)ethan-1-one] | < 8.2 | H (% remaining = 75-100%) | < 116 | F (% remaining = 25-50%) | < 116 | G (% remaining = 50-75%) | < 100 |
